# Data from patent US10526316B2, “Quinoxaline and pyridopyrazine derivatives as PI3Kβ inhibitors” (Janssen Pharmaceutica NV, priority 2015, dated 2020).
# pIC50, pKd: −log10 of the molar value. Like-named read-outs stand apart in the source and are kept apart here.
# Tests used:
# kinase enzymes [1] = molecular target: T1, kinase enzymes (Homo sapiens, UniProt P42345); test: Enzyme binding assay (KINOMEscan, DiscoveRx), further kinases of Table A; details: MTOR_h
# T1 construct: purchased DiscoveRx Corporation, San Diego (contract service, KINOMEscan)
# Method in brief: (§1)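 Binding affinities were measured on the KINOMEscan platform.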
# kinase enzymes [2] = molecular target: T2, kinase enzymes (Homo sapiens, UniProt P42336); test: as above; details: PIK3Cα_h
# T2 construct: purchased DiscoveRx Corporation, San Diego (contract service, KINOMEscan)
# T2 sequence (P42336 whole entry): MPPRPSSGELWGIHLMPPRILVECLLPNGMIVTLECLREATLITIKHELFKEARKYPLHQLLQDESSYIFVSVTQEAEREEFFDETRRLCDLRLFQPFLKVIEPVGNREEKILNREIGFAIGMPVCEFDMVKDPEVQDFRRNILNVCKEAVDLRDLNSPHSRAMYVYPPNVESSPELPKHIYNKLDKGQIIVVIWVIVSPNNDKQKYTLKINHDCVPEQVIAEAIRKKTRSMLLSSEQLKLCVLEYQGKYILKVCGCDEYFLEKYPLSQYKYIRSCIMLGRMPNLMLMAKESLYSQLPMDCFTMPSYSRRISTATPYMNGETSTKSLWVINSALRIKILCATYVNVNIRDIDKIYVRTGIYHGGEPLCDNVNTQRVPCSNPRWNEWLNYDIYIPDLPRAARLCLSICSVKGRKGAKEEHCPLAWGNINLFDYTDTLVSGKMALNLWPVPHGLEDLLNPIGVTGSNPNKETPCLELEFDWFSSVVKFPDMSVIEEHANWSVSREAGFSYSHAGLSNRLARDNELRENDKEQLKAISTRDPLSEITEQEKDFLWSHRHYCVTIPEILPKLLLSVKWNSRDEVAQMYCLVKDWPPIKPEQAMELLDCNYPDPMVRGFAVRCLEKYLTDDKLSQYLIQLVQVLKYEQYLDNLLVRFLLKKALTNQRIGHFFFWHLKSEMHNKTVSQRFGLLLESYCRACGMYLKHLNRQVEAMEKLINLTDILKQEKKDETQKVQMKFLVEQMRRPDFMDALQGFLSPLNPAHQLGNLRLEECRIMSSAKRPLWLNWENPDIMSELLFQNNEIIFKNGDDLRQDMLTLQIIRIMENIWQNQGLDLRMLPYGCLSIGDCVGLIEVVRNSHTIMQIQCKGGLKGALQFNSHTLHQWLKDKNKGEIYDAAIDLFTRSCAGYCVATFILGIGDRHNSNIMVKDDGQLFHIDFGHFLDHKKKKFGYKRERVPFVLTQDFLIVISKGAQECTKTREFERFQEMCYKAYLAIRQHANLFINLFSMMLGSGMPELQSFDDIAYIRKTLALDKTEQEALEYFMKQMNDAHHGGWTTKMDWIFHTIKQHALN
# Method in brief: as §1
# kinase enzymes [3] = molecular target: T3, kinase enzymes (Homo sapiens, UniProt P48736); test: as above; details: PIK3Cγ_h
# T3 construct: purchased DiscoveRx Corporation, San Diego (contract service, KINOMEscan)
# T3 sequence (P48736 whole entry): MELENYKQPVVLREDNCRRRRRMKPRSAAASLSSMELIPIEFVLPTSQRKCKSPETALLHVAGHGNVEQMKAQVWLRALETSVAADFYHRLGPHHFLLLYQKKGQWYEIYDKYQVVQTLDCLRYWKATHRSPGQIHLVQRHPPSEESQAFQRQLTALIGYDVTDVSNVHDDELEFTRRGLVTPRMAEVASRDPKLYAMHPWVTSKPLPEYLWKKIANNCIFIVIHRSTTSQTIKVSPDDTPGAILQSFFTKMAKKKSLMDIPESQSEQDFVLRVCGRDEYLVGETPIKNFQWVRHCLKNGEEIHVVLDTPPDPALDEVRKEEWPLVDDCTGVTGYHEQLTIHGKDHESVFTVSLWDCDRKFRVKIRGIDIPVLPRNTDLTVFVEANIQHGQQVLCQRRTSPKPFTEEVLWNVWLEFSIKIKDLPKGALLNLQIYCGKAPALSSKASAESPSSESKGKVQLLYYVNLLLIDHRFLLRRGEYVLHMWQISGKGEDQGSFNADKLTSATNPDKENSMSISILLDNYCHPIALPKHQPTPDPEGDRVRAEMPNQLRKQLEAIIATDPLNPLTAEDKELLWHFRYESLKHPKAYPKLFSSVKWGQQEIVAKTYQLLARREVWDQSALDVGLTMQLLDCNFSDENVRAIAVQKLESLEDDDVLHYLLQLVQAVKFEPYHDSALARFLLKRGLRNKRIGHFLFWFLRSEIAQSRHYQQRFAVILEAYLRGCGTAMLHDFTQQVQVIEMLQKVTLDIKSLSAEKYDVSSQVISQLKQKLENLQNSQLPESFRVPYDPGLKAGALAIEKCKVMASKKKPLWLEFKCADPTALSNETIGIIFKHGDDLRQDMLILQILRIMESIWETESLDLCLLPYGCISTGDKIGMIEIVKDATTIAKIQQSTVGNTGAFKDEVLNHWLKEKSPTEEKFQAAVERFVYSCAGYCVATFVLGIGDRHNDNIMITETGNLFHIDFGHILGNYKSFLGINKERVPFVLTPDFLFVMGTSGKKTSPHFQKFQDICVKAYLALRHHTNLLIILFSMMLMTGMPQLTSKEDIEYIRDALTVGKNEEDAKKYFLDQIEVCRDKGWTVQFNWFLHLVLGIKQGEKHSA
# Method in brief: as §1
# [4] = system: Akt phosphorylated at Thr308 in PC-3 cells; test: Cellular assay: phosphorylation of Akt at Thr308 in PC-3 cells (MSD ELISA); type: cell-based; details: PC-3 cells, 60 min compound incubation, MSD ELISA, read-out: IC50 pAkt_Thr308
# Method in brief: (§2)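 PC-3 cells were exposed to compound or 0.3% DMSO for 60 min at 37° C, 5% CO2, then lysed in ice-cold buffer. Phospho-Akt was captured on site-specific antibody-coated plates and detected with Sulfo-tag anti-total Akt by electrochemiluminescence. IC50 values came from five-concentration response curves.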
# PI3Kβ = molecular target: T4, PI3Kβ (Homo sapiens, UniProt P42338); test: Enzyme binding assay (KINOMEscan, DiscoveRx); details: PIK3Cβ_h, read-out: Kd PIK3Cβ_h
# T4 construct: purchased DiscoveRx Corporation, San Diego (contract service, KINOMEscan)
# T4 sequence (P42338 whole entry): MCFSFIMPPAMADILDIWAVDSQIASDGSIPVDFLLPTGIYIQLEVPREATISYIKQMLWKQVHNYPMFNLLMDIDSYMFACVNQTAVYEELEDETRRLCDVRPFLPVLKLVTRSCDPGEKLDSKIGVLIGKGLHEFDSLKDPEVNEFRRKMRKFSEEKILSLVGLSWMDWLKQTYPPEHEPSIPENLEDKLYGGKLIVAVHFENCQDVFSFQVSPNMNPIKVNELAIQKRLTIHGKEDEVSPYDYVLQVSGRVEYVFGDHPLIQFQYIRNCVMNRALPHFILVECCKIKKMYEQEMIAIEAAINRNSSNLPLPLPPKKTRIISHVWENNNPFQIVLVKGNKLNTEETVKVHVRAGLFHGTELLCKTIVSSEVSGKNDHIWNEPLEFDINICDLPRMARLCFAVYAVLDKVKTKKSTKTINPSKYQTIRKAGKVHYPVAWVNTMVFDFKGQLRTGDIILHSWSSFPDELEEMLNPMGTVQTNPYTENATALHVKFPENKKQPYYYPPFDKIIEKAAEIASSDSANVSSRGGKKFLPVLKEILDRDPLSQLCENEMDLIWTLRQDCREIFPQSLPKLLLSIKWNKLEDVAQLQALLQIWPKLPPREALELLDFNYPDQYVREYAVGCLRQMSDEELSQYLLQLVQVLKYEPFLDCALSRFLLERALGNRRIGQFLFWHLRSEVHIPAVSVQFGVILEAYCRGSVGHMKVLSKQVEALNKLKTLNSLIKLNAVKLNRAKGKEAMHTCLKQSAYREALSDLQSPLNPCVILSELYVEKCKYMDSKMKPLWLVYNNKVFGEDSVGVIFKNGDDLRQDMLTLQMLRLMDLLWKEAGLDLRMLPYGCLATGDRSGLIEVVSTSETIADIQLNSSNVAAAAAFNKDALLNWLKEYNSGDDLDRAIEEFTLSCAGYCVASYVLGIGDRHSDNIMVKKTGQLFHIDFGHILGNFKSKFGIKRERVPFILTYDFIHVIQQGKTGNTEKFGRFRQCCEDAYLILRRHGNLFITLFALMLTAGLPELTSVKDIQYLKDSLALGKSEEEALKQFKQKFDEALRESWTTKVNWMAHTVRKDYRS
# Method in brief: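 Kinase binding affinities were measured with KINOMEscan technology. Results are given as Kd, the inhibitor binding constant, in nM.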
# [5] = system: Akt phosphorylated at Ser473 in PC-3 cells; test: Cellular assay: phosphorylation of Akt at Ser473 in PC-3 cells (MSD ELISA); type: cell-based; details: PC-3 cells, 60 min compound incubation, MSD ELISA, read-out: IC50 pAkt_S473
# Method in brief: as §2
# PI3Kδ = molecular target: T5, PI3Kδ (Homo sapiens, UniProt O00329); test: Enzyme binding assay (KINOMEscan, DiscoveRx); details: PIK3Cδ_h
# T5 construct: purchased DiscoveRx Corporation, San Diego (contract service, KINOMEscan)
# T5 sequence (O00329 1-1044): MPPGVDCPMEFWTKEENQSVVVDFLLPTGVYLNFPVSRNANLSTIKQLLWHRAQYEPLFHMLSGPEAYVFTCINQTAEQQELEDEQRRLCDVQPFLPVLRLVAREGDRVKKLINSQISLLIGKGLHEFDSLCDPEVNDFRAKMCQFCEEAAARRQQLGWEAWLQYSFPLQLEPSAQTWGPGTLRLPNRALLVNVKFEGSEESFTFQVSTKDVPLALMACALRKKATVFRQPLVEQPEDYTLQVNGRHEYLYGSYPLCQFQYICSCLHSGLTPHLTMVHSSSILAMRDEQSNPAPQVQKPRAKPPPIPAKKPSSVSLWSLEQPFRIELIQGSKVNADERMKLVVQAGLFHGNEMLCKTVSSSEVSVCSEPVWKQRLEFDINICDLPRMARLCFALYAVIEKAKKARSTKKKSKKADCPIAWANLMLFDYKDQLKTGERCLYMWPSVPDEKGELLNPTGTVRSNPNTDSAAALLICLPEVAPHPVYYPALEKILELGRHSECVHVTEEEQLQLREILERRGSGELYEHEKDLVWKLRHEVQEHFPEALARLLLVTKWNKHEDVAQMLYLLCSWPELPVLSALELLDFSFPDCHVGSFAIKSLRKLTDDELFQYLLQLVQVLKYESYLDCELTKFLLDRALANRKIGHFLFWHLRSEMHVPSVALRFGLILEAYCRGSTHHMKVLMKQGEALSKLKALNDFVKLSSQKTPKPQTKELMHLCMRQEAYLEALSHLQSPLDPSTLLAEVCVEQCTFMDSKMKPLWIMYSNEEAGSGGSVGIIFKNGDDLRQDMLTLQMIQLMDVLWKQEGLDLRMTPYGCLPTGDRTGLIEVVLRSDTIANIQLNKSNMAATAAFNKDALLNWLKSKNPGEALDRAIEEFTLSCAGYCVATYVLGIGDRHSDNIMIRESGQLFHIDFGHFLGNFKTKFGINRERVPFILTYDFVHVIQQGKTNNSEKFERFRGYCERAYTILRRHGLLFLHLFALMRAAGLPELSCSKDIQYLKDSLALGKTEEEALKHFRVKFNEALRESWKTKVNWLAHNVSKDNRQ
# Method in brief: as §1
SMILES,pKd (kinase enzymes [1]),pKd (kinase enzymes [2]),pKd (kinase enzymes [3]),"pIC50 ([4]; Homo sapiens, PC-3, 1 h)",pKd (PI3Kβ),"pIC50 ([5]; Homo sapiens, PC-3, 1 h)",pKd (PI3Kδ),pIC50 [4],pIC50 [5]
"Cc1c(F)cccc1CN(C)c1cc(C(=O)N2CCNC(C(F)(F)F)C2)cc2ncc(N3CCOCC3)nc12 (single isomer, unassigned) [Compound 367a]",4.53,5.39,4.63,< 6.29,7.20,< 6.29,5.94,,
CC(Nc1cccc(F)c1)c1cc(C(=O)N(C)C)cc2ncc(N3CCOCC3)nc12 (centres unmarked) [Compound 85],6.25,6.59,5.78,7.11,9.52,7.32,7.39,,
"CC(Nc1cc(F)cc(F)c1)c1cc(C(=O)NS(=O)(=O)C2CC2)cc2ncc(N3CCOCC3)nc12 (single isomer, unassigned) [Compound 219]",5.48,7.03,6.02,< 6.29,9.00,< 6.29,6.56,,
"CC(Nc1cc(F)cc(F)c1)c1cc(C2=NC(C)(C)CO2)cc2ncc(N3CCOCC3)nc12 (single isomer, unassigned) [Compound 187]",< 4.52,< 4.52,< 4.52,< 6.29,5.98,< 6.29,< 4.52,,
CC(Nc1cccc(F)c1)c1cc(CO)cc2ncc(N3CCOCC3)nc12 (centres unmarked) [Compound 100],4.85,5.89,5.76,7.17,9.00,6.84,6.53,,
"CC(Nc1cc(F)cc(F)c1)c1cc(CN2CCOCC23COC3)cc2ncc(N3CCOCC3)nc12 (single isomer, unassigned) [Compound 195]",< 4.52,5.71,4.89,,8.70,,6.32,7.33,~6.99
"CC(Nc1cc(F)cc(F)c1)c1cc(COCCO)cc2ncc(N3CCOCC3)nc12 (single isomer, unassigned) [Compound 177]",4.62,5.86,5.16,,8.70,,6.77,7.38,7.22
"CC(Nc1cc(F)cc(F)c1)c1cc(CN2CCO[C@H](CO)C2)cc2ncc(N3CCOCC3)nc12 (single isomer, unassigned) [Compound 196]",< 4.52,5.55,4.80,7.04,8.30,6.74,6.09,,
O=C(NCCO)c1cc(NCc2cc(F)cc(F)c2)c2nc(N3CCOCC3)cnc2c1 [Compound 229],4.90,5.41,4.69,7.02,8.15,6.73,5.76,,
"CC(Nc1cc(F)cc(F)c1)c1cc(C(=O)N2CCNC(C(F)(F)F)C2)cc2ncc(N3CCOCC3)nc12 (single isomer, unassigned) [Compound 237d]",< 4.52,4.90,< 4.52,,6.62,,4.71,< 6.29,< 6.29
CC1CN(c2cnc3cc(C(=O)N(C)C)cc(N4CCCC4c4cc(F)cc(F)c4)c3n2)CCO1 (centres unmarked) [Compound 396],< 4.52,5.11,4.68,< 6.29,6.92,< 6.29,5.69,,
"CC(Nc1cc(F)cc(F)c1)c1cc(CN2C[C@@H](C)O[C@@H](C)C2)cc2ncc(N3CCOCC3)nc12 (single isomer, unassigned) [Compound 208]",< 4.52,5.46,< 4.52,,8.10,,5.85,7.08,6.73
"CC(Oc1cc(F)cc(F)c1)c1cc(C(=O)N(C)CCO)cc2ncc(N3CCOCC3)nc12 (single isomer, unassigned) [Compound 60]",< 4.52,4.64,< 4.52,,6.31,,4.81,< 6.29,< 6.29
"CCN1CCN(C(=O)c2cc(C(C)Oc3cccc(F)c3)c3nc(N4CCOCC4)cnc3c2)CC1 (single isomer, unassigned) [Compound 91]",< 4.52,5.35,4.67,,8.00,< 6.29,5.91,6.63,
C[C@@H]1CN(c2cnc3cc(C(=O)N(C)C)cc(C4CCCN4c4cc(F)cc(F)c4)c3n2)CCO1 (some centres unmarked) [Compound 4],< 4.52,4.63,< 4.52,< 6.29,5.77,< 6.29,4.64,,
"CC(C)NCCNC(=O)c1cc(C(C)Nc2ccc(F)c(F)c2)c2nc(N3CCOCC3)cnc2c1 (single isomer, unassigned) [Compound 364b]",< 4.52,5.15,5.09,,6.43,,5.11,< 6.29,< 6.29
"CC(C)NCCNC(=O)c1cc(C(C)Nc2ccc(Cl)c(F)c2)c2nc(N3CCOCC3)cnc2c1 (single isomer, unassigned) [Compound 312a]",< 5.00,4.81,< 4.52,< 6.29,5.94,< 6.29,5.00,,
C[C@@H]1CN(c2cnc3cc(C(=O)N(C)C)cc(C4CCCN4c4cc(F)cc(F)c4)c3n2)CCO1 (some centres unmarked) [Compound 3],4.75,7.33,6.64,,9.00,,7.70,~8.52,8.52
"CC(Nc1cc(F)cc(F)c1)c1cc(C(=O)NC[C@@H](C)O)cc2ncc(N3CCOCC3)nc12 (single isomer, unassigned) [Compound 202]",5.22,< 4.52,5.48,,5.40,,< 4.52,< 6.29,< 6.29
"CC(Nc1cc(F)cc(F)c1)c1cc(CN2CCS(=O)(=O)CC2)cc2ncc(N3CCOCC3)nc12 (single isomer, unassigned) [Compound 156]",< 4.52,6.40,< 4.52,,8.70,,6.44,7.29,7.38
"CC(Nc1cc(F)cc(F)c1)c1cc(CO)cc2ncc(N3CCOCC3)nc12 (single isomer, unassigned) [Compound 154a]",5.07,6.36,6.13,,9.00,,7.01,7.64,7.52
"CNCCNC(=O)c1cc(C(C)Oc2cc(F)cc(F)c2)c2nc(N3CCOCC3)cnc2c1 (single isomer, unassigned) [Compound 166]",4.66,4.78,4.83,,7.72,,5.39,< 6.29,< 6.29
"CC(Nc1ccc(F)c(F)c1)c1cc(C(=O)NCCN(C)C)cc2ncc(N3CCOCC3)nc12 (single isomer, unassigned) [Compound 281b]",< 4.52,5.21,5.13,,6.82,,5.46,< 6.29,< 6.29
